Data published in patent publication US20140045807A2, “THE USE OF 3-METHOXY-PREGNENOLONE FOR THE PREPARATION OF A DRUG FOR TREATING A TRAUMATIC BRAIN INJURY” (priority 2004, published 2014).

Tests used:
[1] = tested on: 80 different CNS neurotransmitters receptors; test: Screen for in vitro affinity to 80 different CNS neurotransmitters receptors; type: binding
Text: MAP4343 has been screened for in vitro affinity to 80 different CNS neurotransmitters receptors using various validated binding assays.

[2] = target: T1, human progesterone receptor(PR) (Homo sapiens, UniProt P06401); test: Test of progesterone receptor antagonist activity (luciferase transactivation, HEK293T); type: cell-based; settings: with progesterone (1 nM), increasing amounts
T1 construct: expressed in transfected cells; host or cells: HEK293T
T1 sequence (P06401 1-933): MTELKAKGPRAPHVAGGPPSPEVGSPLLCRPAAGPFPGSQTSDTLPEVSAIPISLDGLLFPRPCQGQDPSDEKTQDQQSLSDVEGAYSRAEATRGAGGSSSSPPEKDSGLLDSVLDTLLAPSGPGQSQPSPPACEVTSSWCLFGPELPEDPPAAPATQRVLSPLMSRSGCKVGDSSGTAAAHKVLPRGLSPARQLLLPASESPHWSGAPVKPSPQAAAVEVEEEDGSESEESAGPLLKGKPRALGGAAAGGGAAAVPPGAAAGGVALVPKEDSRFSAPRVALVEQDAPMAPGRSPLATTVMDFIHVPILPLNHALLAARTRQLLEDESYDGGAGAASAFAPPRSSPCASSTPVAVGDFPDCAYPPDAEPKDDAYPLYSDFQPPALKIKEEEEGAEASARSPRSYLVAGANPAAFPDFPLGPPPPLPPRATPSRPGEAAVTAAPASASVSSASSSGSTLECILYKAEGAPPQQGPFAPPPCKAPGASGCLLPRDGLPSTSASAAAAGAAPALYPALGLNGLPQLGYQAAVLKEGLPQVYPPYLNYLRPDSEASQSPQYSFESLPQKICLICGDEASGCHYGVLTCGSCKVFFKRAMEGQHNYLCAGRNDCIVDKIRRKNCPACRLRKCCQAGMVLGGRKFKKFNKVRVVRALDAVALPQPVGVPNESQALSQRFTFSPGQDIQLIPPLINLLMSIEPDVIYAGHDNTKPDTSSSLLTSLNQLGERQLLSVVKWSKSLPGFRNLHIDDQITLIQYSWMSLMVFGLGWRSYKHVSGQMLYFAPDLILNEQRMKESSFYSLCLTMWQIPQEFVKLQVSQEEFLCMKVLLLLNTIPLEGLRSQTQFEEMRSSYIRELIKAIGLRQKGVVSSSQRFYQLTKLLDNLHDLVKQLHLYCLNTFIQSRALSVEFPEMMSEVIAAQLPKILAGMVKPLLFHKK
Method: The main experimental setting used is the following: HEK293T cells were transiently transfected, using calcium phosphate precipitation technology, with expression vectors pSG5hPR (which permits expression of human progesterone receptor(PR)), pFC31-luc (contains the luciferase gene under the control of the MMTV promoter, which is in turn activated by binding of a progestin to progesterone receptor) and pcbetagal (which permits expression of betagalactosidase), and cultured during 24 hours with increasing amounts of various compositions: • 1. […] Test of progesterone receptor […] activity: transfected cells were cultured with progesterone (1 nM) and increasing amounts of RU486 (a well-known progesterone receptor antagonist) or 3-methoxy-pregnenolone. • With this setting, a compound with progesterone receptor antagonist activity competes with progesterone for the occupation of progesterone receptor and results in a progressive loss of transactivation activity when the amount of this compound is increased compared to progesterone.

MAP2 = MAP2 (Homo sapiens, UniProt P11137); test: Binding (affinity) by displacement of PREG-^3H
Chain of MAP2 (P11137 whole entry): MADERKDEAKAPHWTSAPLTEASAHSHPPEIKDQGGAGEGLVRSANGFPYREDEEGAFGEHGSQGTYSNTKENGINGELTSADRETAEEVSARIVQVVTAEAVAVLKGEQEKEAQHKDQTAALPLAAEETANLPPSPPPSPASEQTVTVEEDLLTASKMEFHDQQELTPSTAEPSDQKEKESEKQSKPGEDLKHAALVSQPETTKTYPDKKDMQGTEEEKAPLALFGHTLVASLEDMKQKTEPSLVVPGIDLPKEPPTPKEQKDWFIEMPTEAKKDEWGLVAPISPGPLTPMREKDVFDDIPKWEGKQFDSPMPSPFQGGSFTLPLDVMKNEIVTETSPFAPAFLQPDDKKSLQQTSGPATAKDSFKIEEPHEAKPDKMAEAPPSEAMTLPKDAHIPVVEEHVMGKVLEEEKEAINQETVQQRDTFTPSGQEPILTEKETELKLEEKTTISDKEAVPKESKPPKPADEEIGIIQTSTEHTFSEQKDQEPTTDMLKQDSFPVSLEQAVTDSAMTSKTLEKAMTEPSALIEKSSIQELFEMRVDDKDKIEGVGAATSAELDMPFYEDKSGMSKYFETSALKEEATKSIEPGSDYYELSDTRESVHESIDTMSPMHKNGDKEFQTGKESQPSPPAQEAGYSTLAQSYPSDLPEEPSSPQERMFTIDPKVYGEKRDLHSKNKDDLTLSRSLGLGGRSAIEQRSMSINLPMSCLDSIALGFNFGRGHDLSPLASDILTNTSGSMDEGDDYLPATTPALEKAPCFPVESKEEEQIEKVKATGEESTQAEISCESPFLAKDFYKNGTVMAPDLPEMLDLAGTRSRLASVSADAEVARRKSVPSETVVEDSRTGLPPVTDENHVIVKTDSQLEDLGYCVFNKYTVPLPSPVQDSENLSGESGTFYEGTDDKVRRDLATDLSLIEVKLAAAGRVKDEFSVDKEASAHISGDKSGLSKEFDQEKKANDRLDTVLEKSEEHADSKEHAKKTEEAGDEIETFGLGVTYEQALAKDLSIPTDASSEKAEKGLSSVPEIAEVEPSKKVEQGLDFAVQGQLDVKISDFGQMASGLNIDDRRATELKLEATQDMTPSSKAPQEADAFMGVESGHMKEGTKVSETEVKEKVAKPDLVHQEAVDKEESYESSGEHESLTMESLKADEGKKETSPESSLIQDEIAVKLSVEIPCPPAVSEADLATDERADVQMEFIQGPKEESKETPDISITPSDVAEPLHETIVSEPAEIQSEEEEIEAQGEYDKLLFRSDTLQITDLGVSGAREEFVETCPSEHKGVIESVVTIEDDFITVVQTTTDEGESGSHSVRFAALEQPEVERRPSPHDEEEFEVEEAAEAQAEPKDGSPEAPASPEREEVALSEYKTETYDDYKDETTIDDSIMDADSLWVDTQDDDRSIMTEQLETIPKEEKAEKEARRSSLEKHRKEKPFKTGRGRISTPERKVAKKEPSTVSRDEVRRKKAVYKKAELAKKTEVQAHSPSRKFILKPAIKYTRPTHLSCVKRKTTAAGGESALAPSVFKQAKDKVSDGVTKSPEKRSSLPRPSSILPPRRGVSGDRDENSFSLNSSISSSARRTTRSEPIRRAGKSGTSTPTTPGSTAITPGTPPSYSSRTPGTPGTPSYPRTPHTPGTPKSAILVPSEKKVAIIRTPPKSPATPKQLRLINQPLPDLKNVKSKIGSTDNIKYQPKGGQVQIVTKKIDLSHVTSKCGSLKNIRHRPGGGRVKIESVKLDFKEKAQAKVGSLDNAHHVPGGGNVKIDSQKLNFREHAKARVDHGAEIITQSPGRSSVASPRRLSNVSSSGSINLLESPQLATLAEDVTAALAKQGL
Method: Binding (affinity) is measured by the displacement of PREG-^3H.

GFAP = GFAP immunostaining after Lateral Fluid Percussion (LFP); type: in vivo, rat; settings: first injection 2 hours post-trauma, day 35, no statistical analysis
Method: FIG. 24: Quantification of GFAP immunostaining in LFP-injured animals. (A) GFAP immunostaining in injured cortex of LFP-injured animals injected with vehicle (sesame oil), or 3-methoxy-PREG (MAP4343) at 10 mg/kg or 20 mg/kg, with first injection at 2 hours post-trauma. (B) GFAP immunostaining in injured and uninjured thalamus of LFP-injured animals injected with vehicle (sesame oil), or 3-methoxy-PREG (MAP4343) at 10 mg/kg or 20 mg/kg, with first injection at 2 hours post-trauma. No statistical analysis has been performed.
After anesthesia induction, the animal was placed on a stereotaxic frame. […]
Trauma was induced by a fluid percussion device (Custom Design and Manufacturing, United Kingdom) (Besson et al., 2003): it is a cylindrical tank (60 cm long), with a piston on one side, over which a hammer exercises a constraint, and a male Luer-Lock on the other side. […] The amplitude of each shock wave was measured via a pressure transducer connected to the terminal portion of the device. The pressure signal was recorded on an oscilloscope. […]
After mounting on Superfrost slides, frozen sections were dried for 90 minutes at room temperature and stored at −80° C. until use. […] Immunostaining was quantitatively assessed by optical density measurements directly from the section image (Image J). […]

For `CO[C@H]1CC[C@@]2(C)C(=CC[C@H]3[C@@H]4CC[C@H](C(C)=O)[C@@]4(C)CC[C@@H]32)C1` [3-methoxy-PREG, 3β-methoxy-pregna-5-ene-20-one], the “affinity for any tested receptor” value [1] was “no significant affinity”, the “progesterone receptor antagonist activity” value [2] was “weak progesterone receptor antagonist” and the “Affinity (index of binding)” value (MAP2) was 100% of PREG. For the same compound, the “astrocytes GFAP immunoreactivity in the injured cortex” value (GFAP; 10 mg/kg or 20 mg/kg) was “highly decreased” and the “astrocytes immunoreactivity (GFAP) in the injured thalamus” value (GFAP; especially Dose2 (20 mg/kg)) was “strongly decreases astrocytes immunoreactivity”.
